From PMC7464503, “Antioxidant and Antibacterial Properties of Carbosilane Dendrimers Functionalized with Polyphenolic Moieties” (Pharmaceutics, 2020)
In brackets after ≈: the same amount, converted by molar mass.

How the values were obtained:
[1] = system: Staphylococcus aureus (CECT 240); assay: In vitro antibacterial activity (ISO 20776-1:2006), turbidity at 625 nm; assay type: cell-based; conditions: CECT240, S. aureus, 24 h at 37 °C, 1% DMSO, tested up to 16 ppm; for IC50: read-out: MIC50; for IC80: read-out: MIC80
Method: (§1) In vitro antibacterial analysis of dendritic polyphenols was performed following the international standard method ISO 20776-1:2006 [22]. The antibacterial activity was assayed in two different bacteria, Escherichia coli (CECT 515) and Staphylococcus aureus (CECT 240), both obtained from the Spanish Type Culture Collection in lyophilized form. The biocide solutions were prepared following the EUCAST (European Committee for Antimicrobial Susceptibility Testing) protocol for hydrophobic compounds. For this purpose, stock solutions in DMSO of each compound were made and then, subsequent dilutions in Mueller-Hinton […] (Scharlau, ref. 02–136) were developed to obtain the testing concentrations (from 0.0312 ppm to 16 ppm) with 1% of DMSO. The assay was carried out in 96-well plates, with two different wells for each concentration and with different controls (biocide, inoculum, culture medium, and DMSO). The bacteria were inoculated at a concentration of 10^5 CFU/mL in wells. After 24 h of incubation with biocides at 37 °C, the increase of turbidity at 625 nm was determined using an Ultra Microplate reader (BIO-TECK Instruments, model ELx808). MIC50 and MIC80 values were the concentrations of the compounds with an optical density of 50% and 20% compared to nontreated bacteria.

[2] = system: Escherichia coli (CECT 515); assay: as above; assay type: cell-based; conditions: CECT515, E. coli, 24 h at 37 °C, 1% DMSO, tested up to 16 ppm, read-out: MIC50
Method: as §1

[3] = Cyclic voltammetry, electrochemical characterization of the antioxidant capacity; assay type: physicochemical; conditions: for Ep (peak potential) / Ip (peak intensity) / ΔEp (difference between anodic and cathodic peak): glassy carbon electrode, ± SD of three measurements; for Ep (peak potential): 20 mM acetate buffer pH 3.6, vs Ag|AgCl|KCl (3M); for Ip (peak intensity) / ΔEp (difference between anodic and cathodic peak): 20 mM acetate buffer pH 3.6
Method: Electrochemical measurements were carried out on an Autolab PGSTAT 12 potentiostat from Metrohm (Utrecht, The Netherlands), employing a glassy carbon (GC) disk working electrode. The GC electrode was polished after each measurement using a 0.1 and 0.05 µm alumina/water slurry until a shiny mirror-like finish was achieved, and washed with ultrapure water. Electrodes were modified with 1 mM solutions of each compound (L, G1, and G2) in MeOH; 5 µL drops were drop-cast in the electrode and allowed to dry before the measurements. Electrochemical measurements were performed in a 20 mM acetate buffer solution (pH 3.6), employing an Ag|AgCl|KCl (3M) reference electrode and a platinum wire as a counterelectrode.
Electrochemical characterization of the antioxidant capacity: The electrochemical behavior of the synthesized polyphenolic dendrimers (1–6), together with the free polyphenol (L), has been investigated using cyclic voltammetry (CV). CV is a powerful electrochemical technique that can be employed to study the ability of a molecule to undergo electron transfer and to estimate the antioxidant activity through the peak potential (Ep), intensity (ip), and reversibility (ΔEp). A lowering in the Ep or ΔEp and an increase in the ip are indicative of higher antioxidant activity.

[4] = Cell viability by MTT assay; assay type: cell-based, human; conditions: human; for viability at 24 h, 16 ppm: HFF-1, 16 ppm; for viability at 24 h, 8 ppm: HFF-1, 8 ppm
Method: (§2) HFF-1 cells were grown routinely in DMEM (Dulbecco’s modified Eagle’s medium, Sigma Aldrich, St. Louis, MO, USA, ref. D6429) supplemented with 10% fetal bovine serum (FBS, Sigma Aldrich, ref. F7524) and 1% penicillin/streptomycin/amphotericin B (Sigma Aldrich, ref. A5955) at 37 °C and 5% CO2. Cells were seeded in 96-well plates (Nunclon Delta Surface, Thermo Fischer Scientific, Waltham, MA, USA; 8 × 10^3 cells per well) and grown in a complete DMEM medium for 24 h. Cell viability was determined by MTT assay (MTT, 3-(4,5-dimethyl-2-thiazolyl)-2,5-diphenyl-2H-tetrazolium bromide). A stock compound solution was prepared in DMSO. Then, dilutions in cell culture were made to obtain the final concentrations with 1% of DMSO per well. […] After incubation, MTT was added at a concentration of 5 mg/mL and plates were incubated for 3 h. Finally, the culture medium was removed and the purple formazan crystals formed by the mitochondrial dehydrogenase and reductase activity of vital cells were dissolved in DMSO. The optical density, directly proportional to the number of surviving cells, was quantified at 570/630 nm in a spectrophotometer BioTEK 800 (Izasa). The assay was carried out in triplicate, with eight different wells for each concentration and with different controls (culture medium and DMSO).

[5] = DPPH free radical-scavenging assay; conditions: stated as the same activity as the cited polyether dendrimers
Method: This method involves the radical concentration reduction by the antioxidant agent, which entails absorbance reduction and increasing compound concentration. When antioxidants are mixed with DPPH solution, the color turns from purple to yellow, with the maximum absorption at 530 nm. The ability of dendritic polyphenols to scavenge the DPPH radical was evaluated. An aliquot of 100 µL of different stock sample concentrations in the range of 0.01 and 100 µM in methanol was added to a volume of 900 µL of a DPPH stock solution (0.12 mM) in a DMSO/H2O (1:1) mixture. The mixture was shaken, kept in the dark at room temperature, and recorded at 530 nm every 5 min up to 30 min. The blank was constituted by methanol instead of the sample.
The IC50 of DPPH scavenging activity and EC50 of FRAP capacities were calculated following similar protocols. Firstly, for each concentration, it was necessary to calculate the DPPH remnant, as well as the Fe(II) that formed, through the following equations: 1. DPPHREM(%)=(As/Ac)×100 2. Fe(II)FOR(%)=(As−Ac/Ac)×100 where REM = remnant, FOR = formed, As = Sample absorbance, and Ac = Control absorbance. The graphical representation of the percentage of the remnant or formed reagent versus the −log[X] […] The results are expressed as mean ± SEM and are representative of at least three independent experiments.

HFF-1 cells = assay: Cell viability by MTT assay; assay type: cell-based, human; conditions: HFF-1, 16 ppm, 24 h
Method: as §2

[6] = G2 compared to free polyphenol L

## O=C(O)/C=C/c1ccc(O)c(O)c1 [Caffeic L, reference compound]
[1]
  IC50: > 16 µg/mL
  IC80: > 16 µg/mL
[2]
  IC50: > 16 µg/mL
[3]
  Ep (peak potential): 0.263 ± 0.005 V
  Ip (peak intensity): 2.91 ± 0.07 µA
  ΔEp (difference between anodic and cathodic peak): 0.205 ± 0.002 V

## COc1cc(C=CC(=O)O)ccc1O [Ferulic L, 3-(4-hydroxy-3-methoxyphenyl)-2-propenoic acid, reference compound]
[1]
  IC50: > 16 µg/mL
  IC80: > 16 µg/mL
[2]
  IC50: > 16 µg/mL
[3]
  Ep (peak potential): 0.686 ± 0.009 V
  Ip (peak intensity): 3.70 ± 0.08 µA

## COc1cc(/C=C/C(=O)NCCC[Si](C)(C)CCC[Si](CCC[Si](C)(C)CCCNC(=O)/C=C/c2ccc(O)c(OC)c2)(CCC[Si](C)(C)CCCNC(=O)/C=C/c2ccc(O)c(OC)c2)CCC[Si](C)(C)CCCNC(=O)/C=C/c2ccc(O)c(OC)c2)ccc1O [G1 (1), G1-[Si(CH2)3NH(CO)CH=CHCH2Ph(OH)(OCH3))]4]
[4]
  viability at 24 h, 16 ppm: 95.4 ± 6.6%
[1]
  IC50: > 16 µg/mL
  IC80: > 16 µg/mL
[2]
  IC50: > 16 µg/mL
[3]
  Ep (peak potential): 0.637 ± 0.002 V
  Ip (peak intensity): 0.75 ± 0.06 µA

## C[Si](C)(CCCNC(=O)/C=C/c1ccc(O)c(O)c1)CCC[Si](CCC[Si](C)(C)CCCNC(=O)/C=C/c1ccc(O)c(O)c1)(CCC[Si](C)(C)CCCNC(=O)/C=C/c1ccc(O)c(O)c1)CCC[Si](C)(C)CCCNC(=O)/C=C/c1ccc(O)c(O)c1 [G1 (2), G1-[Si(CH2)3NH(CO)CH=CHCH2Ph(OH)2)]4]
[4]
  viability at 24 h, 8 ppm: 98.8 ± 1.7%
  viability at 24 h, 16 ppm: 100%
[5]
  IC50: ~5 µM
[1]
  IC50: 8 µg/mL (≈ 6.11 µM)
  IC80: 16 µg/mL (≈ 12.2 µM)
[2]
  IC50: > 16 µg/mL
[3]
  Ep (peak potential): 0.276 ± 0.009 V
  Ip (peak intensity): 1.39 ± 0.04 µA
  ΔEp (difference between anodic and cathodic peak): 0.188 ± 0.006 V

## C[Si](C)(CCCNC(=O)c1cc(O)c(O)c(O)c1)CCC[Si](CCC[Si](C)(C)CCCNC(=O)c1cc(O)c(O)c(O)c1)(CCC[Si](C)(C)CCCNC(=O)c1cc(O)c(O)c(O)c1)CCC[Si](C)(C)CCCNC(=O)c1cc(O)c(O)c(O)c1 [G1 (3), G1-[Si(CH2)3NH(CO)Ph(OH)3]4]
[4]; HFF-1, 4 ppm
  viability at 24 h, 4 ppm: 84.8 ± 7.5%
[4]
  viability at 24 h, 8 ppm: 99.1 ± 1%
[1]
  IC50: 4 µg/mL (≈ 3.15 µM)
  IC80: 8 µg/mL (≈ 6.3 µM)
[2]
  IC50: 16 µg/mL (≈ 12.6 µM)
[3]
  Ep (peak potential): 0.410 ± 0.008 V
  Ip (peak intensity): 4.12 ± 0.07 µA

## COc1cc(/C=C/C(=O)NCCC[Si](C)(C)CCC[Si](C)(CCC[Si](C)(C)CCCNC(=O)/C=C/c2ccc(O)c(OC)c2)CCC[Si](CCC[Si](C)(CCC[Si](C)(C)CCCNC(=O)/C=C/c2ccc(O)c(OC)c2)CCC[Si](C)(C)CCCNC(=O)/C=C/c2ccc(O)c(OC)c2)(CCC[Si](C)(CCC[Si](C)(C)CCCNC(=O)/C=C/c2ccc(O)c(OC)c2)CCC[Si](C)(C)CCCNC(=O)/C=C/c2ccc(O)c(OC)c2)CCC[Si](C)(CCC[Si](C)(C)CCCNC(=O)/C=C/c2ccc(O)c(OC)c2)CCC[Si](C)(C)CCCNC(=O)/C=C/c2ccc(O)c(OC)c2)ccc1O [G2 (4), G2-[Si(CH2)3NH(CO)CH=CHCH2Ph(OH)(OCH3))]8]
HFF-1 cells
  % Viability: 92.9 ± 7.4%
[1]
  IC50: > 16 µg/mL
  IC80: > 16 µg/mL
[2]
  IC50: > 16 µg/mL
[3]; [6]
  decrease in the Ep compared to L: 73 mV
[3]
  Ep (peak potential): 0.613 ± 0.008 V
  Ip (peak intensity): 0.56 ± 0.02 µA

## C[Si](C)(CCCNC(=O)/C=C/c1ccc(O)c(O)c1)CCC[Si](C)(CCC[Si](C)(C)CCCNC(=O)/C=C/c1ccc(O)c(O)c1)CCC[Si](CCC[Si](C)(CCC[Si](C)(C)CCCNC(=O)/C=C/c1ccc(O)c(O)c1)CCC[Si](C)(C)CCCNC(=O)/C=C/c1ccc(O)c(O)c1)(CCC[Si](C)(CCC[Si](C)(C)CCCNC(=O)/C=C/c1ccc(O)c(O)c1)CCC[Si](C)(C)CCCNC(=O)/C=C/c1ccc(O)c(O)c1)CCC[Si](C)(CCC[Si](C)(C)CCCNC(=O)/C=C/c1ccc(O)c(O)c1)CCC[Si](C)(C)CCCNC(=O)/C=C/c1ccc(O)c(O)c1 [G2 (5), G2-[Si(CH2)3NH(CO)CH=CHCH2Ph(OH)2)]8]
HFF-1 cells
  % Viability: 100.0 ± 0.0%
[1]
  IC50: > 16 µg/mL
  IC80: > 16 µg/mL
[2]
  IC50: > 16 µg/mL
[3]; [6]
  decrease in ΔEp compared to L: 85 mV
[3]
  Ep (peak potential): 0.302 ± 0.010 V
  Ip (peak intensity): 0.143 ± 0.09 µA
  ΔEp (difference between anodic and cathodic peak): 0.120 ± 0.009 V

## O=C(O)c1cc(O)c(O)c(O)c1 [Gallic L, 3,4,5-trihydroxybenzoic acid, reference compound]
[1]
  IC50: > 16 µg/mL
  IC80: > 16 µg/mL
[2]
  IC50: > 16 µg/mL
[3]
  Ep (peak potential): 0.477 ± 0.001 V
  Ip (peak intensity): 3.87 ± 0.08 µA
